# Source: EP0151577B1 (priority 1983, dated 1984)
# Assays:
# [1] = test system: rat; test: Anti-stress activity: restraint ulcer in the rat; format: in vivo; details: 174 mg/kg i.p.
# Excerpt: BONFILS, S., LIEFOOGHE, GK, ROSSI, G. and LAMBLING, A. L'ulcère de contrainte du Rat blanc. Modifications de la fréquence lesionnelle par différents precedes opératoires et pharmacodynamiques. C.R. Soc. Biol., 151, 1149, 1957.
# BONFILS, S., ROSSI, G., LIEFOOGHE, G. and LAMBLING, A., Ulcère experimental de contrainte, I. Méthodes, fréquence des lesions, modifications par certains precedes techniques et pharmacologiques. Rev. franç. Etudes clin. biol., 4,146, 1959.
# [2] = test system: souris; test: Pentobarbital sleeping time; format: in vivo
# Protocol: Les mesures ont été faites a 15, 30 et 60 minutes après I'administration par voie intrapéritonéale (i.p.) a des souris.
# [3] = test system: DOPA-oxydase; test: Inhibition in the DOPA-oxydase + DOPA system; format: biochemical, champignons; details: concentrations inférieures a 10-^4M; figure 1
# Excerpt: D'autres essais ont été entrepris pour mesurer l'inhibition exercée par la DF-5HTP dans le système DOPA-oxydase + DOPA, par comparaison avec la désoxyfructosérotonine (DFS). Pour ce qui concerne l'inhibition de la DOPA-oxydase, on pourra se reporter a la methode de N.H. Horowitz, M. Fling et et C. Horn "Tyrosinase", dans Methods in Enzymology Vol. XVII- A, p. 615, Editors: Tabor and Tabor, Ac. Press, 1970.
# L'effet de la désoxyfructo-sérotonine (DFS) sur les Mycobacteries de la lèpre est attribue a son effet inhibiteur sur la DOPA-oxydase de M. leprae. Une DOPA-oxydase semblable, isolée de champignons, est commercialisée (SIGMA) et a servi comme modèle afin de comparer l'effet inhibiteur de la DFS et du désoxyfructo-5-hydroxytryptophane sur cette DOPA-oxydase.
# La figure 1 est un graphique dans lequel on a porté en abscisses la concentration de I'agent de traitement utilise et en ordonnées les valeurs de la coloration du milieu mesurée a 540 mµ, celles-ci étant en effet representatives de la concentration en substance capable de colorer le milieu. En presence d'un inhibiteur, la formation de la coloration est empêchée. Ainsi, plus les valeurs portées en ordonnées sont faibles, meilleure est I'inhibition procurée par le compose essayé.
# [4] = test system: souris; test: Tremor score in mice pretreated with a MAO inhibitor (Harmaline); format: in vivo; details: for Score total (tremblements): Harmaline pretreatment, 5 souris
# Protocol: Les conditions expérimentales étaient les suivantes:
# Chez des souris prétraitées par un inhibiteur de la MAO (Harmaline 25 mg/kg/ P.O.), I'injection de 5HTP (1 heure après l'IMAO) entraîne l'apparition de tremblements plus ou moins généralisés, accompagnés ou non d'hyperactivité motrice et qui sont dus a I'accumulation de sérotonine non dégradée au niveau des récepteurs post-synaptiques cérébraux. On peut établir pour chaque souris une cotation chiffrée suivant l'intensité des symptômes observes au cours du temps (cotation toutes les 5 min. entre la 5ème et la 45ème min. après I'injection de 5 HTP puis toutes les 15 min. jusqu'à la 75ème min.).
# On additionne en une score total tous les chiffres obtenus aux différents temps sur des lots de 5 ou 10 souris.
# Les actions du 5 HTP ont été comparées a celles du DF-5HTP.
# [5] = test system: souris; test: Anti-stress activity: milk-induced leucocytosis; format: in vivo; details: 174 mg/kg i.p.; 0,1 ml de lait s.c. before treatment; lait seulement 23866 ± 214
# [6] = test system: Rythme cardiaque; test: Cardiovascular activity: heart rate; format: in vivo
# Excerpt: (§1) Le protocole experimental était celui décrit dans "Sugar Derivatives of Indolamines. part V: Cardiovascular Effects and "Anti-stress" Activity of Desoxyfructose Derivative of Serotonin and 5-Metho-xy- tryptamin", L. Mester, M. Mester, K.P. Bhargava, C. Labrid, G. Dureng and M. Cheucle, THROMBOSIS […], 15,245,1979.
# [7] = Solubility in water and organic solvents; format: physicochemical
# Excerpt: II est insoluble dans le benzene, l'acetate d'ethyle et le chloroforme.
# [8] = In vivo metabolism of radioactive compounds, hamster plasma; details: après 24 heures, figure 2
# Excerpt: La mesure de la radioactivite des diverses fractions isolées du sang des hamsters traités permet de caractériser les metabolites, lesquels sont ainsi isolés et identifies par électrophorèse. Les metabolites acides HIAA et IAA sont séparés ensemble.
# On a porté le temps en abscisses (exprimé en heures) et en ordonnées le pourcentage du compose caractérisé dans le plasma.
# [9] = test system: réponse à l'obstruction de la carotide; test: Cardiovascular activity: response to carotid occlusion (CO); format: in vivo
# Excerpt: as §1
# [10] = test system: cellules des neuroblastomes; test: Inhibition of serotonin incorporation into neuroblastoma cells in vitro; format: cell-based; details: 0°C
# [11] = test system: souris; test: Anti-stress activity: swimming endurance; format: in vivo; details: 174 mg/kg i.p., souris observed up to 540 min; témoins 385 ± 31 min
# Protocol: Au tableau 4, la lettre N designe le nombre d'animaux (souris). Un astérisque indique une activite importante. Deux astérisques indiquent une possibilité d'activité positive. Dans I'essai d'endurance a la nage, on a observe les souris jusqu'à 540 minutes, la durée moyenne de nage pour les souris témoins étant de 385 ± 31 minutes.
# (N) - représente le nombre d'animaux * - activité importante ** - activite positive possible Pour I'endurance a la nage, les souris ont été observées jusqu'à 540 min, la durée moyenne de nage chez les souris témoins était de 385 + 31 min. *** - La leucocytose a été induite par 0,1 ml de lait (sous-cutanée) avant traitement avec le medicament.
# [12] = 10 mg par voie cérébroventriculaire
compound,measurement,setting,value
"O=C(O)C(Cc1c[nH]c2ccc(O)cc12)NCC1(O)OCC(O)C(O)C1O (stereo not drawn) [DF-5HTP, N-1-desoxyfructo-5-hydroxytryptophane]",Effet anti-ulcère chez le rat (18 heures sous contrainte) Indice d'Ul-cération,[1]; témoin 34,10^**(4)
same,Effet anti-ulcère chez le rat (18 heures sous contrainte) % Ul-cération,[1]; témoin 90,50%
same,Temps de sommeil au pentobarbital % du témoin (témoin =100),"[2]; 100 mg/kg (ip), 15 min, Tableau 2",140 % du témoin
same,Temps de sommeil au pentobarbital % du témoin (témoin =100),"[2]; 100 mg/kg (ip), 30 min",114 % du témoin
same,Temps de sommeil au pentobarbital % du témoin (témoin =100),"[2]; 100 mg/kg (ip), 60 min",103 % du témoin
same,Temps de sommeil au pentobarbital % du témoin (témoin =100),"[2]; 174 mg/kg (ip), 15 min",93 % du témoin
same,Temps de sommeil au pentobarbital % du témoin (témoin =100),"[2]; 174 mg/kg (ip), 30 min",95 % du témoin
same,Temps de sommeil au pentobarbital % du témoin (témoin =100),"[2]; 174 mg/kg (ip), 60 min",91 % du témoin
same,activité inhibitrice sur la DOPA-oxydase (coloration du milieu mesurée a 540 mµ),[3],comparable a celle de la DFS
same,Score total (tremblements),[4]; 150 mg/kg S.C. (mole for mole 75 mg/kg of 5 HTP),0
same,Score total (tremblements),[4]; 500 mg/kg S.C.,0
same,activité dans l'essai des tremblements,"[4]; souris pretreated with Harmaline, overall statement",inactif
same,Effet sur la leu-cocytose induite par le lait Moyenne T.L.C./Cmm,[5],10468 ± 130 (8) /Cmm
same,Rythme cardiaque Durée (min),[6]; [12],non mani-festée à 150
same,Rythme cardiaque Mesure à,[6]; [12],30 min
same,Rythme cardiaque Pic,[6]; [12],75 min
same,Rythme cardiaque Durée,[6]; 100 mg par voie intraveineuse,45 min
same,Rythme cardiaque Mesure à,[6]; 100 mg par voie intraveineuse,5 min
same,Rythme cardiaque Pic,[6]; 100 mg par voie intraveineuse,10 min
same,"solubilité dans le benzene, l'acetate d'ethyle et le chloroforme","[7]; benzene, acetate d'ethyle, chloroforme",insoluble
same,soluble dans I'eau,[7]; eau,facilement soluble
same,taux du compose non transformé dans le plasma,[8],considerable
same,REPONSE CO Durée,[9]; [12],120 min
same,REPONSE CO Mesure à,[9]; [12],30 min
same,REPONSE CO Pic,[9]; [12],30 min
same,REPONSE CO Durée,[9]; 100 mg par voie intraveineuse,45 min
same,REPONSE CO Mesure à,[9]; 100 mg par voie intraveineuse,1 min
same,REPONSE CO Pic,[9]; 100 mg par voie intraveineuse,1 min
same,% Inhibition à 0°C de l'incorporation de la sérotonine dans les cellules nerveuses,[10],50%
same,Endurance à la nage % d'augmentation,[11],40^** %
